# Source: US7572439B2, “Enzyme disruption of bacterial biofilms” (priority 2002, dated 2009)
# Assays:
# [1] = test system: biofilms of S. aureus SA113; assay: Kinetic effect on established biofilms: absorbance at 650 nm and safranin staining; assay type: cell-based; conditions: for absorbance of biofilms at 650 nM: 6.25 μg/ml in PBS
# Method: Oxacillin and vancomycin have often been used in antibiotic susceptibility studies of S. aureus biofilms. […] Twenty four-hour biofilms in polystyrene 96-well tissue culture plates were treated with serial dilutions of lysostaphin, oxacillin, and vancomycin (FIG. 7).
# In order to examine the kinetic effect of lysostaphin, oxacillin and vancomycin on biofilms, the absorbance of established biofilms in a 96-well tissue culture plate was measured over time (0-3 hrs and 24 hrs). Tissue culture wells containing biofilms of S. aureus SA113 were incubated with serial dilutions of lysostaphin ([…]), oxacillin ([…]), or vancomycin ([…]) for 24 hours, and the absorbance at 650 nm was monitored every 20 minutes for the first 3 hours and then again at 24 hours. The absorbance of the lysostaphin-treated biofilms dropped from approximately 0.35 at time zero to 0.125 after 3 hours of treatment and dropped to near base line (0.04) by 24 hrs when treated with a dose of lysostaphin of 6.25 μg/ml in PBS (FIG. 7). […] Since antimicrobials like oxacillin or vancomycin are effective against actively metabolizing bacteria, a similar experiment was conducted but the biofilms were incubated with the three anti-microbials in bacterial media (TSB). Very similar results were also found when the assay was conducted in TSB rather than PBS.
# The capacity of the three agents to disrupt S. aureus biofilms in polystyrene wells can be visualized by comparing the staining intensity of treated wells versus control (buffer-treated) wells.
# SA5 [2] = assay: Leaching of lysostaphin off coated surfaces; assay type: cell-based, S. aureus
# Method: Leaching of Lysostaphin. To test whether lysostaphin was slowly being released from the catheter into the lumen solution, lysostaphin coated catheters were incubated with 100 μl PBS for 2 hours at 37° C. The PBS was then transferred into an Eppendorf tube and 10^5 CFU of SA5 was added to the effluent and incubated for 1 hour at 37° C. 40 μl from the samples were streaked onto blood agar plates and incubated overnight at 37° C. Alternatively, lysostaphin coated catheters were incubated with PBS overnight at 37° C. The following morning the PBS was washed out and the catheters were inoculated with ˜5×10^4 CFU/ml SA5 for 2 hours at 37° C. The effluent was then streaked onto blood agar plates and incubated at 37° C. overnight. To look for leaching off the polystyrene surface, the wells were coated with 10, 1 and 0.1 mg/ml lysostaphin for 60 minutes. The wells were then washed, and 300 μl of PBS was added to the wells for 2 hours and then removed 300 μl of a 5×10^4 CFU/ml solution of SA5 was added to the PBS wash and allowed to incubate for one hour at 37° C. 40 μl was then removed and streaked onto a blood agar plate and incubated overnight at 37° C.
# SA5 [3] = assay: Adherence of bacteria to catheters; assay type: cell-based, S. aureus
# Method: Adherence of Bacteria to Catheters. Lysostaphin coated catheters were placed in 2 ml of a 0.1 mg/ml solution of lysostaphin for 2 hours with shaking at 37° C. to coat the outside of the catheter. They were then washed and placed in a 5×10^4 CFU/ml solution of SA5 and incubated for 3 hours at 37° C. 40 μl of the bacterial solution was streaked on to blood agar plates and incubated at 37° C. overnight. The catheters were incubated in 2 ml TSB overnight at 37° C. and examined for growth. Untreated catheters were washed with 50 ml PBS and then inoculated with 120 μl of a 5×10^6 CFU/ml solution of bacteria and incubated for 2 or 24 hours. The catheter effluent was then streaked onto blood agar plates and placed at 37° C. overnight. The catheters were washed with 50 ml PBS and the last ml of wash was collected, and 100 μl was streaked onto blood agar plates and incubated at 37° C. overnight. The catheters were then incubated in 1 ml TSB at 37° C. overnight and observed for growth.
# S. aureus [4] = assay: Killing of bacteria in lysostaphin-coated Angiocath catheters; assay type: cell-based
# Method: Two Angiocath catheters (Becton Dickinson) were incubated with 200 PI of a 100 μg/mL solution of lysostaphin, while two others were incubated in PBS. The catheters were allowed to incubate overnight at 4° C. The following morning the catheters were washed with 50 ml PBS using a pump with a flow rate of 1.5 ml/minute. Once the catheters were washed, S. aureus SA5 was diluted in PBS to a percent transmittance of 40. A 1:10,000 dilution of this solution was made, and 100 μl was added to each catheter. The catheters were allowed to incubate for two hours at 37° C. Following incubation, the catheter effluent was plated onto blood agar plates and put in the incubator overnight at 37° C. The colonies on the plates were counted the following morning.
# Coating of Catheters. The needles from the AngioCath catheters were removed and disposed. Using a 1 ml syringe, the catheters were coated with 200 μl of a 0.1 mg/ml solution of lysostaphin. The catheters were incubated for 1 hour, unless otherwise specified, at room temperature. The catheters were then washed with 50 ml of phosphate buffered saline using a peristaltic pump with a flow rate of 1.5 ml/minute. The catheters were then inoculated with 120 μl of a ˜5×10^4 CFU/ml solution of bacteria (diluted in TSB) and incubated for 2 hours at 37° C. The catheter effluent was then streaked onto a blood agar plate and incubated overnight at 37° C.
# S. aureus [5] = assay: Lysostaphin activity on catheters in presence of serum proteins; assay type: cell-based
# S. aureus biofilms = assay: Biofilm assay: S. aureus biofilms in 96 well plates or plate inserts, safranin stain or SEM; assay type: cell-based; conditions: 50 μg/ml in PBS, three hours
substance,measurement,setting,value
lysostaphin,absorbance of biofilms at 650 nM,[1]; 24 hrs,~0.04
same,absorbance of biofilms at 650 nM,[1]; after 3 hours,0.125
same,absorbance of biofilms at 650 nM,[1]; time zero,approximately 0.35
same,lowest concentration that cleared biofilms (safranin),"[1]; in PBS, 24 hours",0.8 µg/mL
same,effect on absorbance of biofilms,"[1]; in TSB, 24 hours (data not shown)",reduced the absorbance of biofilms to near background
same,effect on absorbance of S. aureus biofilms over time (FIG. 7 legend),"[1]; lysostaphin 6.25 cg/ml, vancomycin 800 cg/ml, oxacillin 400 cg/ml",immediate and continuous drop in the absorbance
same,CFU (n = 3),"SA5 [2]; Angiocath, coating 0.1 mg/ml, saline incubation 2 hr, bacteria added to PBS wash",219 CFU
same,CFU (n = 3),"SA5 [2]; Angiocath, coating 0.1 mg/ml, saline incubation 24 hr, bacteria added to catheter",0 CFU
same,CFU (n = 3),"SA5 [2]; Polystyrene, coating 0.1 mg/m, saline incubation 2 hr, killing in wash",291 CFU
same,CFU (n = 3),"SA5 [2]; Polystyrene, coating 1 mg/ml, saline incubation 2 hr, killing in wash",33 CFU
same,CFU (n = 3),"SA5 [2]; Polystyrene, coating 10 mg/ml, saline incubation 2 hr, killing in wash",26 CFU
same,reduction in bacterial counts by PBS wash from coated catheters,SA5 [2]; bacteria added to PBS wash,only minimal reduction in bacterial counts
same,log reduction in bacterial counts due to leaching,"SA5 [2]; polystyrene, 0.1 mg/ml coating, PBS wash",0.33 log
same,log reduction of SA5 titers by wash compared to control,"SA5 [2]; polystyrene, 1 mg/ml coating, PBS wash",1.3 log
same,log reduction of SA5 titers by wash compared to control,"SA5 [2]; polystyrene, 10 mg/ml coating, PBS wash",1.4 log
same,clearing of bacteria by coated catheters after overnight wash with PBS,SA5 [2]; vs 1500 CFU's from untreated catheters,complete clearing of bacteria
same,growth after overnight incubation of catheters in TSB,SA5 [3]; after 3 hours in bacterial solution,the catheters remained sterile
same,clearing of bacterial solution by coated catheters,"SA5 [3]; catheters coated inside and outside, 5×10^4 CFU/ml SA5, 3 hrs",cleared the solution
same,CFU,"S. aureus [4]; Angiocath, coating 100 μg/ml overnight 4° C., SA5 two hours 37° C.",0 CFU
same,CFU (n = 2),"S. aureus [4]; Table 13, AngioCath, coating concentration 0.1 mg/ml",0 CFU
same,CFU (n = 2),"S. aureus [4]; catheter coating 0.1 mg/ml, MRSA (MBT5040)",1 CFU
same,CFU (n = 2),"S. aureus [4]; catheter coating 0.1 mg/ml, SA5",1 CFU
same,CFU (n = 2),"S. aureus [4]; catheter coating 0.1 mg/ml, SA8",0 CFU
same,reduction of bacterial counts,S. aureus [4]; catheters coated 5 minutes with 0.1 mg/ml,98.7%
same,reduction of bacterial counts,S. aureus [4]; catheters coated 10 minutes with 0.1 mg/ml,99.4%
same,reduction of bacterial counts,S. aureus [4]; catheters coated 15 minutes with 0.1 mg/ml,completely cleared
same,clearing of bacteria from coated catheters,S. aureus [4]; catheters incubated with SA8,completely cleared
same,"CFU recovered from the catheters, on average",S. aureus [4]; coated catheters incubated with MRSA (MBT5040),1 CFU
same,clearing of bacteria from coated catheters,S. aureus [4]; vs 493 CFU's from control catheters,completely cleared of bacteria
same,reduction in bacterial counts,S. aureus [5]; 0.1 mg/ml coated catheters incubated with human serum 24 hours,99%
same,clearing of bacteria,S. aureus [5]; 10 and 1 mg/ml coated catheters incubated with human serum,completely cleared the bacteria
same,biofilm disruption (safranin stain),"S. aureus biofilms; S. aureus strain MBT 5040 (MRSA), room temperature",completely disrupted
same,biofilm disruption of lysostaphin-resistant strains (safranin stain),S. aureus biofilms; lysostaphin-resistant S. aureus,failure of lysostaphin to disrupt biofilms
